Assays:
WT mice [1] = assay: Meningeal lymphatic vessel ablation (Visudyne plus photoconversion): lymphatic morphology; type: in vivo, mouse; conditions: 1 week after Visudyne i.c.m. plus transcranial photoconversion
Experimental: (§1) Adult 2 months-old WT mice were injected (i.c.m.) with Visudyne (5 μL) followed by a transcranial photoconversion step (Vis./photo.) to ablate meningeal lymphatic vessels. Control mice were injected with Visudyne without photoconversion (Vis.). One week later, mice were injected with 5 μL of a suspension of fluorescent microspheres (1 μm in diameter) into the CSF and 15 minutes later the lymphatic vessel afferent to the deep cervical lymph node (dCLN) was imaged by in vivo stereomicroscopy. Representative images of skull cap show microspheres and lymphatic vessels stained for LYVE-1 around the confluence of sinuses (COS) and transverse sinus (TS) at the dorsal brain meninges or around the sigmoid (SS) and petrosquamosal (PSS) sinuses at the basal brain meninges (scale bars, 500 μm). […]
Immunohistochemistry, imaging and quantifications. […]

WT mice [2] = assay: In vivo measurement of CSF outflow into dCLNs (fluorescent microspheres); parameters: species or system mouse; conditions: 1 week after photoablation
Experimental: as §1
In vivo measurement of CSF outflow into dCLNs. […] Fluorescent microsphere drainage was analyzed in FIJI software by drawing a line demarcating the draining lymphatic vessel afferent to the dCLN and manually counting the beads passing the line by a blinded experimenter. […]

verteporfin [Visudyne]
lymphatic vasculature lining the transverse sinus (dorsal meninges) (WT mice [1]): efficient ablation
lymphatic vessels around the SS and PSS (basal meninges) (WT mice [1]): no significant changes
CSF drainage (microspheres from the CSF into the dCLNs) (WT mice [2]): significant reduction

— patent US20230067811A1, “MODULATING LYMPHATIC VESSELS IN NEUROLOGICAL DISEASE” (University of Virginia Patent Foundation, priority 2020, published 2023)
